Like-named read-outs stand apart in the source and are kept apart here.
What was measured:
[1] = Acute effect on blood glucose in fed female DIO C57BL/6 mice; format: in vivo; conditions: 50 μg/kg s.c.; t=1, 2, 3, 4, 6 and 24 h post dosing; p<0.0001
Protocol: (§1) C57BL/6 Harlan mice are housed in groups in a specific pathogen-free barrier facility on a 12 h light/dark cycle with free access to water and standard or high-fat diet. After prefeeding on high-fat diet, mice are stratified to treatment groups (n=8), so that each group has similar mean body weight. An age-matched group with ad-libitum access to standard chow is included as standard control group. Before the experiment, mice are subcutaneously (s.c.) injected with vehicle solution and weighed for 3 days to acclimate them to the procedures.
1) Acute effect on blood glucose in fed female DIO mice: initial blood samples are taken just before first administration (s.c.) of vehicle (phosphate buffer solution) or the exendin-4 derivatives (dissolved in phosphate buffer), respectively. The volume of administration is 5 mL/kg. The animals have access to water and their corresponding diet during the experiment. Blood glucose levels are measured at t=0 h, t=1 h, t=2 h, t=3 h, t=4 h, t=6 h and t=24 h (method: Accu-Check glucometer). Blood sampling is performed by tail incision without anaesthesia.
(§2) Statistical analyses are performed with Everstat 6.0 by repeated measures two-way ANOVA and Dunnetts post-hoc analyses (glucose profile) and 1-way-ANOVA, followed by Dunnetts post-hoc test (body weight, body fat). Differences versus vehicle-treated DIO control mice are considered statistically significant at the p<0.05 level.
At predefined time points, more blood samples were taken to measure blood glucose and generate the blood glucose profile over 24 h.

[2] = molecular target: T1, human GLP-1 receptor (hGLP-1 R) (Homo sapiens, UniProt P43220); experiment: cAMP response of HEK-293 cells expressing human GLP-1 receptor (HTRF); format: cell-based; conditions: Table 6
T1 construct: expressed in transfected cells
Protocol: (§3) cAMP content of cells was determined using a kit from Cisbio Corp. (cat. no. 62AM4PEC) based on HTRF (Homogenous Time Resolved Fluorescence). For preparation, cells were split into T175 culture flasks and grown overnight to near confluency in medium (DMEM/10% FBS). Medium was then removed and cells washed with PBS lacking calcium and magnesium, followed by proteinase treatment with accutase (Sigma-Aldrich cat. no. A6964). Detached cells were washed and resuspended in assay buffer (1×HBSS; 20 mM HEPES, 0.1% BSA, 2 mM IBMX) and cellular density determined. They were then diluted to 400000 cells/ml and 25 μl-aliquots dispensed into the wells of 96-well plates. For measurement, 25 μl of test compound in assay buffer was added to the wells, followed by incubation for 30 minutes at room temperature.

[3] = Pharmacokinetic testing in mice, s.c.; format: in vivo; conditions: mouse, plasma, sc, 1 mg/kg s.c.
Protocol: (§4) Mice were dosed 1 mg/kg subcutaneously (s.c.). The mice were sacrified and blood samples were collected after 0.25, 0.5, 1, 2, 4, 8, 16 and 24 hours post application. Plasma samples were analyzed after protein precipitation via liquid chromatography mass spectrometry (LC/MS). PK parameters and half-life were calculated using WinonLin Version 5.2.1 (non-compartment model).

[4] = molecular target: T2, human GIP receptor (hGIP-R) (Homo sapiens, UniProt P48546); experiment: cAMP response of HEK-293 cells expressing human GIP receptor (HTRF); format: cell-based; conditions: Table 6; read-out: EC50 hGIP-R
T2 construct: expressed in transfected cells
T2 sequence (P48546 22-466): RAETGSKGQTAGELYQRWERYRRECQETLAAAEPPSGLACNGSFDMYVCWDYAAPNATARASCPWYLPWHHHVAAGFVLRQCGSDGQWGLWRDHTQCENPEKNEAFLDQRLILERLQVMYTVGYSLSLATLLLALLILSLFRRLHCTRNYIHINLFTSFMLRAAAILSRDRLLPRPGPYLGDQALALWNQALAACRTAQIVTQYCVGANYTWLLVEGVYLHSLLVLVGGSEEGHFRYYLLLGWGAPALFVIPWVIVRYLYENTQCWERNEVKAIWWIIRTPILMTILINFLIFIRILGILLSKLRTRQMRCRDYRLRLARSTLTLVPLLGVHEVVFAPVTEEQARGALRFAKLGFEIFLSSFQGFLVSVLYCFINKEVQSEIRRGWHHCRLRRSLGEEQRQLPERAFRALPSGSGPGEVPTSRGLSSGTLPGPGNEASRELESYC
Protocol: as §3

[5] = Pharmacokinetic testing in Göttinger minipigs, s.c.; format: in vivo; conditions: female, minipig, plasma, sc, Mini pigs, 0.1 mg/kg s.c.
Protocol: as §4, with “Female Göttinger minipigs were” for “Mice were”, “dosed 0.1” for “dosed 1”, “(s.c.). Blood” for “(s.c.). The mice were sacrified and blood”, “8, 24, 32, 48, 56” for “8, 16”, “and 72” for “and 24”

[6] = molecular target: T3, human glucagon receptor (hGlucagon R) (Homo sapiens, UniProt P47871); experiment: cAMP response of HEK-293 cells expressing human glucagon receptor (HTRF); format: cell-based; conditions: Table 6
T3 construct: expressed in transfected cells
Protocol: as §3

[7] = Chronic effect on body weight and body fat in female DIO C57BL/6 mice, 4 weeks; format: in vivo; conditions: 50 μg/kg bid s.c.; for Day on which significant body weight decrease begins / Daily body weight compared to vehicle DIO control mice: 4 weeks; for Day on which significant body weight decrease begins: continuing through the end of the study; for Daily body weight compared to vehicle DIO control mice: p>0.0001 by the end of the study (so in the source); for Body fat change / Overall weight change: DIO mice, 4-week treatment, mean ± SEM; for Body fat change: NMR
Protocol: as §1
2) Chronic effect on body weight in female DIO mice: mice are treated once (s.c. in evening hours) or twice daily (s.c. in the morning and in the evening), respectively, at the beginning and the end of the light phase with either vehicle or exendin-4 derivatives for 4 weeks. Body weight is recorded daily. Two days before start of treatment and on day 26, total fat mass is measured by nuclear magnetic resonance (NMR).
as §2
Body weight was recorded daily, and body fat content was determined before the start and after 4 weeks of treatment. […] These changes resulted from a decrease in body fat, as shown by the absolute changes in body fat content (Table 10, FIG. 3).
Body weight was recorded daily, and body fat content was determined before the start and after 4 weeks of treatment.

[8] = Solubility testing in buffer (HPLC-UV); format: physicochemical
Protocol: Prior to the testing of solubility and stability of a peptide batch, its purity (HPLC-UV) was determined.
. Therefore, solutions from solid samples were prepared in different buffer systems with a concentration of 10 mg/mL compound based on the previously determined % purity. HPLC-UV was performed after 2 h of gentle agitation from the supernatant, which was obtained by 20 min of centrifugation at 4500 rpm.
[…]. This analysis also served as starting point (t0) for the stability testing.

[9] = pH 4.5, target concentration 10 mg/ml, read-out: solubility [mg/ml] pH 4.5
[10] = pH 7.4, target concentration 10 mg/ml, read-out: solubility [mg/ml] pH 7.4

T3 sequence (P47871 26-477): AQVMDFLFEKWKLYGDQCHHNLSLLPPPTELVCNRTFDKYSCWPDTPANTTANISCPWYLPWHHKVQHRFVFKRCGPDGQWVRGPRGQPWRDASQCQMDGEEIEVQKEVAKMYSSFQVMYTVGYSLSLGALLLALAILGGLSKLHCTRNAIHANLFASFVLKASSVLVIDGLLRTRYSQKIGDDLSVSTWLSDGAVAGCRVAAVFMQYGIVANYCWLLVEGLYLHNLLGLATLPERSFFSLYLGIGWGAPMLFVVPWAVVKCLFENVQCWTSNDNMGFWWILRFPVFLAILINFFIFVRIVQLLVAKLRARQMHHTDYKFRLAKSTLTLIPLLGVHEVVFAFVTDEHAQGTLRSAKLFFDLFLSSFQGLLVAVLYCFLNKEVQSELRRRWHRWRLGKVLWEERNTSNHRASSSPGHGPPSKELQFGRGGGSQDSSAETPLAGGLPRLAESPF
T1 sequence (P43220 24-463): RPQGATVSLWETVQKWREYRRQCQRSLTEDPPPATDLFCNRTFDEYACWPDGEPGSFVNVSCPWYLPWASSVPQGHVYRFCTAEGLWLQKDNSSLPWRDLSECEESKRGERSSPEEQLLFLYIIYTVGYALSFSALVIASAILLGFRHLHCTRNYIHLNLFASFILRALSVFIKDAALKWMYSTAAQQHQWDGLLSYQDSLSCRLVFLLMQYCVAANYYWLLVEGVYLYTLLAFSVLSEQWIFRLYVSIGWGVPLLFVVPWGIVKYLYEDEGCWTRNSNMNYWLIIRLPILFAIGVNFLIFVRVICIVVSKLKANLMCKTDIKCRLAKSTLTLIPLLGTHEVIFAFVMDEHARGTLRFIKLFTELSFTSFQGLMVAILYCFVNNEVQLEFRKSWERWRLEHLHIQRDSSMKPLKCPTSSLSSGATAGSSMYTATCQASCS

| SMILES | Blood glucose compared to DIO control mice [1] | EC50 [2] [nM] | Cmax [3] [ng/mL] | half-life [3] [h] | EC50 [4] [nM] | Cmax [5] [ng/mL] | half-life [5] [h] | EC50 [6] [nM] | Day on which significant body weight decrease begins [7] [days] | Daily body weight compared to vehicle DIO control mice [7] | Body fat change [7] [g] | Overall weight change [7] [g] | solubility at 2 h [8, 9] [mg/mL] | solubility at 2 h [8, 10] [mg/mL] |
| --- | --- | --- | --- | --- | --- | --- | --- | --- | --- | --- | --- | --- | --- | --- |
| CCCCCCCCCCCCCCCC(=O)N[C@@H](CCC(=O)N[C@@H](CCC(=O)NCCCC[C@H](NC(=O)[C@H](CCC(N)=O)NC(=O)[C@H](CCCCN)NC(=O)[C@H](CO)NC(=O)[C@H](CC(C)C)NC(=O)[C@H](CC(=O)O)NC(=O)[C@H](CO)NC(=O)[C@@H](NC(=O)[C@H](Cc1ccccc1)NC(=O)[C@@H](NC(=O)CNC(=O)[C@H](CCC(N)=O)NC(=O)C(C)(C)NC(=O)[C@@H](N)Cc1c[nH]cn1)[C@@H](C)O)[C@@H](C)O)C(=O)N[C@@H](CC(=O)O)C(=O)N[C@@H](CCC(=O)O)C(=O)N[C@@H](CCC(N)=O)C(=O)N[C@@H](CCCNC(=N)N)C(=O)N[C@@H](C)C(=O)N[C@@H](CCCCN)C(=O)N[C@@H](CC(C)C)C(=O)N[C@@H](Cc1ccccc1)C(=O)N[C@H](C(=O)N[C@@H](CCC(=O)O)C(=O)N[C@@H](Cc1c[nH]c2ccccc12)C(=O)N[C@@H](CC(C)C)C(=O)NC(C)(C)C(=O)N[C@@H](C)C(=O)NCC(=O)NCC(=O)N1CCC[C@H]1C(=O)N[C@@H](CO)C(=O)N[C@@H](CO)C(=O)NCC(=O)N[C@@H](C)C(=O)N1CCC[C@H]1C(=O)N1CCC[C@H]1C(=O)N1CCC[C@H]1C(=O)N[C@@H](CO)C(N)=O)[C@@H](C)CC)C(=O)O)C(=O)O [SEQ ID NO: 8, H-Aib-Q-G-T-F-T-S-D-L-S-K-Q-K(γE-γE-x53)-D-E-Q-R-A-K-L-F-I-E-W-L-Aib-A-G-G-P-S-S-G-A-P-P-P-S-NH2] | significant decrease in blood glucose | 0.0023 | 4360 | 3.8 | 2.14 | 476 | 18.1 | 0.0281 | 5 | reduced body weight significantly | -3.81 ± 0.6 | -5.38 ± 0.5 | > 8 | > 8 |
| CCCCCCCCCCCCCCCC(=O)N[C@@H](CCC(=O)N[C@@H](CCC(=O)NCCCC[C@H](NC(=O)[C@H](CCC(N)=O)NC(=O)[C@H](CCCCN)NC(=O)[C@H](CO)NC(=O)[C@H](CC(C)C)NC(=O)[C@H](CC(=O)O)NC(=O)[C@H](CO)NC(=O)[C@@H](NC(=O)[C@H](Cc1ccccc1)NC(=O)[C@@H](NC(=O)CNC(=O)[C@H](CCC(N)=O)NC(=O)C(C)(C)NC(=O)[C@@H](N)Cc1c[nH]cn1)[C@@H](C)O)[C@@H](C)O)C(=O)N[C@@H](CC(=O)O)C(=O)N[C@@H](CCC(=O)O)C(=O)N[C@@H](CCC(N)=O)C(=O)N[C@@H](CCCNC(=N)N)C(=O)N[C@@H](C)C(=O)N[C@@H](CCCCN)C(=O)N[C@@H](CC(C)C)C(=O)N[C@@H](Cc1ccccc1)C(=O)N[C@H](C(=O)N[C@@H](CCC(=O)O)C(=O)N[C@@H](Cc1c[nH]c2ccccc12)C(=O)N[C@@H](CC(C)C)C(=O)NC(C)(C)C(=O)N[C@@H](C)C(=O)N[C@H](C)C(=O)NCC(=O)N1CCC[C@H]1C(=O)N[C@@H](CO)C(=O)N[C@@H](CO)C(=O)NCC(=O)N[C@@H](C)C(=O)N1CCC[C@H]1C(=O)N1CCC[C@H]1C(=O)N1CCC[C@H]1C(=O)N[C@@H](CO)C(N)=O)[C@@H](C)CC)C(=O)O)C(=O)O [SEQ ID NO: 7, H-Aib-Q-G-T-F-T-S-D-L-S-K-Q-K(γE-γE-x53)-D-E-Q-R-A-K-L-F-I-E-W-L-Aib-A-dAla-G-P-S-S-G-A-P-P-P-S-NH2] | significant decrease in blood glucose | 0.0034 | 5510 | 3.1 | 7.62 | 667 | 29 | 0.101 | 7 | statistically significant decrease | -3.73 ± 0.8 | -5.49 ± 0.9 | > 8 | > 8 |
